Like-named read-outs stand apart in the source and are kept apart here.

The values below come from paper PMC6695897, “Synthesis and In Vitro Screening of Novel Heterocyclic β-D-Gluco- and β-D-Galactoconjugates as Butyrylcholinesterase Inhibitors” (Molecules, 2019).

The target of the experiment is T1, horse serum butyrylcholinesterase (BChE) (Equus caballus, UniProt P81908).
T1 construct: native enzyme from horse serum, lyophilised, commercial (Sigma-Aldrich), untagged
The experiment in a line: Ellman assay, global fit to mixed inhibition model. The class given is biochemical. Particulars: for Ki: read-out: Ki ± SEM (μM) ^1. From the text:
Ellman assay, global fit to mixed inhibition model on horse serum butyrylcholinesterase (BChE)

T1 sequence (P81908 whole entry): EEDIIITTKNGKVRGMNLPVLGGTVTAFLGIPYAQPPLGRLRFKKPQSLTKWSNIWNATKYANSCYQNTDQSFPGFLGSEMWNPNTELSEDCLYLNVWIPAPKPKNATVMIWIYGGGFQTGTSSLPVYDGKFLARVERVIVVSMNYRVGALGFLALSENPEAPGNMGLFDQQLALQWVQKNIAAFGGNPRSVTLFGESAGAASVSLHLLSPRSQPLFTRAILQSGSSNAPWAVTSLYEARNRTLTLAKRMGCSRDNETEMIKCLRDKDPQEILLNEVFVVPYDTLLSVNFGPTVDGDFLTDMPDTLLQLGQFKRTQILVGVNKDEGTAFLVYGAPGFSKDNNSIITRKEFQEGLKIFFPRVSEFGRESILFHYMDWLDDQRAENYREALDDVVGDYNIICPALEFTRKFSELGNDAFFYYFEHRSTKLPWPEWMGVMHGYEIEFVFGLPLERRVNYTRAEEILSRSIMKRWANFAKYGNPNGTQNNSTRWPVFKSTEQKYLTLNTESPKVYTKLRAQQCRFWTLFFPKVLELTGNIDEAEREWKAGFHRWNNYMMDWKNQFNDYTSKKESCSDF

In the case of `OC[C@H]1O[C@@H](OCCn2cnc3ccccc32)[C@H](O)[C@@H](O)[C@@H]1O` [compound 5, N1-[2-(β-D-glucopyranozyloxy)ethyl]benzimidazole], where the note is “acetylthiocholine 0.04–1 mM, DTNB 0.3 mM, 0.1 M sodium phosphate pH 7.4, 25 °C, mixed”, the Ki stood at 16 ± 1.6 µM.

On to `OC[C@H]1O[C@@H](OCC[n+]2cn(Cc3ccccc3)c3ccccc32)[C@H](O)[C@@H](O)[C@@H]1O` [compound 7, N1-benzyl-N3-[2-(β-D-glucopyranozyloxy)ethyl]benzimidazolium bromide], for which the Ki came out at 52 ± 3 µM.

As for `OC[C@H]1O[C@@H](OCCn2cnc3ccccc32)[C@H](O)[C@@H](O)[C@H]1O` [compound 12, N1-[2-(β-D-galactopyranozyloxy)ethyl]benzimidazole], where the note is “acetylthiocholine 0.04–1 mM, DTNB 0.3 mM, 0.1 M sodium phosphate pH 7.4, 25 °C, unreliable (extrapolated beyond tested 15–170 μM)”, the “Ki ± SEM (μM) ^1” value was 782 ± 306 µM.

In the case of `OC[C@H]1O[C@@H](OCC[n+]2cn(Cc3ccccc3)c3ccccc32)[C@H](O)[C@@H](O)[C@H]1O` [compound 14, N1-benzyl-N3-[2-(β-D-galactopyranozyloxy)ethyl]benzimidazolium bromide], the inhibitory constant (Ki) was 26 ± 2.7 µM.

By Ki is commonly meant a measure of affinity in units of concentration, obtained from inhibition or displacement.
